Experimental data as given in patent US4256753A, “4-(2-Pyridylamino)phenylacetic acid derivatives” (Dainippon Pharmaceutical Co., Ltd., priority 1978, dated 1981).
Read-outs that look alike come from different tables or passages of the source.

Columns and labels:
[1] = system: Acetic acid-induced vascular permeability; assay: Acetic acid-induced vascular permeability in mice (CAP method); assay type: in vivo; conditions: Mus musculus, po, read-out: Anti-inflammatory ED50, CAP
Protocol: (b) Acetic acid-induced vascular permeability in mice (CAP method)
The test was carried out according to the method described in Brit. J. Pharm. Chemother., 22, 246 (1964).

[2] = system: Acetic acid-induced writhing; assay: Acetic acid-induced writhing in rats (ACWR method); assay type: in vivo; conditions: Rattus norvegicus, po, read-out: Analgesic ED50, ACWR
Protocol: (b) Acetic acid-induced writhing in rats (ACWR method)
The test was carried out according to the method described in Arzneim. Forsch., 25, 1505 (1975).

[3] = system: Carrageenin-induced hind paw edema; assay: Carrageenin-induced hind paw edema in rats (CAR method); assay type: in vivo; conditions: Rattus norvegicus, po, read-out: Anti-inflammatory ED50, CAR
Protocol: (a) Carrageenin-induced hind paw edema in rats (CAR method)
The test was carried out according to the method described in Proc. Soc. Exp. Biol. Med., 111, 544 (1962).

[4] = system: Phenylquinone-induced writhing; assay: Phenylquinone-induced writhing in mice (PQW method); assay type: in vivo; conditions: Mus musculus, po, read-out: Analgesic ED50, PQW
Protocol: (a) Phenylquinone-induced writhing in mice (PQW method)
The test was carried out according to the method described in Proc. Soc. Exp. Biol. Med., 95, 729 (1957).

[5] = Gastrointestinal ulcerogenicity in fasted rats; conditions: rat, in vivo, po
Protocol: The test was carried out using fasted rats according to the method described in Arzneim.

[6] = system: adjuvant-induced arthritis; assay: Prophylactic effect on adjuvant-induced arthritis in rats; assay type: in vivo, female rats of JCL:SD strain; conditions: for Arthritic incidence: 80 mg/kg/day p.o., days 0-20, vehicle control 100
Anti-allergic activity = conditions: result in words, no test described
in vivo = conditions: mouse, po
[7] = mice, acetic acid-induced vascular permeability

Structure (SMILES) | ED50 [1, 7] [mg/kg] | ED50 [2] [mg/kg] | ED50 [3] [mg/kg] | ED50 [4] [mg/kg] | TD50 [5] [mg/kg] | Arthritic incidence [6] [%] | anti-allergic activity (Anti-allergic activity) | ED50 [1] [mg/kg] | selectivity ratio ([5]; rats, p.o., UD50 divided by ED50 of CAR method, read-out: Safety index, ratio of UD50/ED50 (CAR method)) | LD50 at 168 h (in vivo) [mg/kg] | Arthritic index mean ± S.E., 22nd day ([6]; rat, in vivo) | Arthritic index mean ± S.E., 28th day ([6]; rat, in vivo)
CC(C(=O)O)c1ccc(Nc2ccccn2)c(Cl)c1 (centres unmarked) [B, 2-[3-Chloro-4-(2'-pyridylamino)phenyl]propionic acid] | 3.18 | 1.8 | 13.1 | 8.62 |  |  |  |  |  |  |  | 
CC(C(=O)O)c1ccc(N(C)c2ccccn2)cc1 (centres unmarked) [Compound 2, 2-[4-[N-Methyl-N-(2'-pyridyl)amino]phenyl]propionic acid] | > 20 | 20 | 40 | > 100 |  |  |  |  |  |  |  | 
CC(C)Cc1ccc(C(C)C(=O)O)cc1 (centres unmarked) [Compound 1, 2-(4-isobutylphenyl)propionic acid, reference compound] |  | 9.43 |  | 50 | 125 | 85.7 | does not show such an activity | 7.11 |  |  |  | 
CC(C(=O)O)c1ccc(Oc2ccccn2)cc1 (centres unmarked) [Compound 3, 2-[4-(2'-Pyridyloxy)phenyl]propionic acid] | 6.74 | 5.51 | 20 | 80 |  |  |  |  |  |  |  | 
CC(C(=O)O)c1ccc(Nc2ccccn2)cc1 (centres unmarked) [Compound A, 2-[4-(2'-Pyridylamino)phenyl]propionic acid] | 0.88 | 1.36 | 10 | 7.33 | > 640 | 0 | shows an anti-allergic activity |  | > 64 | 1910 | 1.3 ± 0.8 | 1.3 ± 0.6
